Reference: patent publication US8628938B2, “Polynucleotide encoding UDP-glucuronyl transferase” (Suntory Holdings Limited, priority 2007, dated 2014)

What was measured:
[1] = system: S1UGT; test: UDP-glucuronosyltransferase activity assay (HPLC) with recombinant S1UGT; format: biochemical, Scutellaria laeteviolacea v. yakusimensis; conditions: for glucuronosyl transfer activity to glycosyl acceptor substrate (in words): standard reaction conditions; for relative activity to each substrate, taking the activity to scutellarein as 100%: 100 μM glycosyl acceptor substrate, 2 mM UDP-glucuronic acid, pH 7.5, 30° C., 30 minutes
Description: (§1) Escherichia coli BL21 (DE3) was transformed with each plasmid obtained in 4-(1) above. The transformant obtained was shake cultured overnight at 37° C. in 4 ml of LB medium (10 g/l tryptone, 5 g/l yeast extract, 1 g/l NaCl) supplemented with 50 μg/ml of ampicillin. The culture broth, 4 ml, which reached the stationary phase, was inoculated into 80 ml of the medium with the same composition, followed by shake culture at 37° C. When the cell turbidity (OD600) reached approximately 0.5, 0.4 mM IPTG (isopropyl-β-thiogalactopyranoside) in a final concentration was added to the medium, followed by shake culture at 22° C. for 20 hours. All of the subsequent procedures were performed at 4° C. The transformants cultured were centrifuged (7,000×g, 15 mins.) to collect the cells, and 2 ml/g cell of Buffer S (20 mM sodium phosphate buffer (pH 7.4), 20 mM imidazole, 0.5 M NaCl, 14 mM β-mercaptoethanol) was added to the cells for suspension. Subsequently, ultrasonication was performed (15 secs.×8) followed by centrifugation (15,000×g, 10 mins.). To the supernatant obtained, 0.12% (w/v) polyethyleneimine in a final concentration was added to […], which was then allowed to stand for 30 minutes. The mixture was centrifuged (15,000×g, 10 mins.) and the supernatant was recovered as a crude enzyme solution. The crude enzyme solution was applied to His SpinTrap (GE Healthcare), which had been equilibrated with Buffer S, and centrifuged (70×g, 30 secs.). After washing with 600 μl of Buffer S, the protein bound to the column was stepwise eluted with 600 μl each of Buffer S containing 100, 200 and 500 mM imidazole. The buffer in each fraction eluted was replaced by 20 mM potassium phosphate buffer (pH 7.5) containing 14 mM β-mercaptoethanol, using Microcon YM-30 (Amicon). […] These fractions were mixed and used for analysis.
(§2) Standard reaction conditions are as follows. A reaction solution (2 mM UDP-glucuronic acid, 100 μM glycosyl acceptor substrate, 50 mM potassium phosphate buffer (pH 7.5), enzyme solution), 50 μl, was prepared and the enzyme solution was added to initiate the reaction at 30° C. for 30 minutes. The reaction was stopped by adding 50 μl of 0.5% TFA in CH3CN and provided for HPLC analysis. The conditions for HPLC are as follows: column, Develosil C30-UG-5 (4.6×150 mm); eluant A, 0.1% TFA/H2O; eluant B, 0.08% TFA/90% CH3CN; conditions A for elution (except for aurone, catechin, coumarine and phenylpropanoid), 0 min/5% B→18 min/100% eluant B'18.1 min/5% B→25 min/5% B; conditions B for elution (aurone, catechin, coumarine and phenylpropanoid), 0 min/5% B→20 min/50% eluant B→20.5 min/5% B→25 min/5% B; flow rate, 1 ml/min; detection wavelength: 280 and 350 nm.

[2] = system: PfUGT50; test: UDP-glucuronosyltransferase activity assay (HPLC) with recombinant PfUGT50; format: biochemical, Perilla frutescens; conditions: for glucuronosyl transfer activity to glycosyl acceptor substrate (in words): standard reaction conditions; for relative activity to each substrate, taking the activity to scutellarein as 100%: 100 μM glycosyl acceptor substrate, 2 mM UDP-glucuronic acid, pH 7.5, 30° C., 30 minutes
Description: as §1, §2

[3] = system: AmUGTcg10; test: UDP-glucuronosyltransferase activity assay (HPLC) with recombinant AmUGTcg10; format: biochemical, Antirrhinum majus; conditions: for relative activity to each substrate, taking the activity to scutellarein as 100%: 100 μM glycosyl acceptor substrate, 2 mM UDP-glucuronic acid, pH 7.5, 30° C., 30 minutes; for glucuronosyl transfer activity to glycosyl acceptor substrate (in words): standard reaction conditions
Description: as §1, §2

[4] = system: SiUGT23; test: UDP-glucuronosyltransferase activity assay (HPLC) with recombinant SiUGT23; format: biochemical, Sesamum indicum; conditions: for relative activity to each substrate, taking the activity to scutellarein as 100%: 100 μM glycosyl acceptor substrate, 2 mM UDP-glucuronic acid, pH 7.5, 30° C., 30 minutes; for glucuronosyl transfer activity to glycosyl acceptor substrate (in words): standard reaction conditions
Description: as §2
cDNA containing full-length ORF of SiUGT23 derived from Sesamum indicum was amplified by a gene-specific primer set (SEQ ID NOs: 24 and 25). cDNA synthesized using total RNA extracted from sesame seeds was used as a template. SiUGT23 was incorporated into Escherichia coli expression vector as in UGT of Perilla frutescens, Scutellaria laeteviolacea v. yakusimensis and Antirrhinum majus in EXAMPLE 1 and recombinant SiUGT23 protein was expressed in the same way to assay the enzyme activity.

[5] = apigenin as glycosyl acceptor substrate

Compound | glucuronosyl transfer activity to glycosyl acceptor substrate (in words) [1] | glucuronosyl transfer activity to glycosyl acceptor substrate (in words) [2] | relative activity to each substrate, taking the activity to scutellarein as 100% [2] | relative activity to each substrate, taking the activity to scutellarein as 100% [4] | glucuronosyl transfer activity to glycosyl acceptor substrate (in words) [4] | relative activity to each substrate, taking the activity to scutellarein as 100% [1] | glucuronosyl transfer activity to glycosyl acceptor substrate (in words) [3] | also measured
Oc1ccc(C2OCC3C(c4ccc(O)c(O)c4)OCC23)cc1O (single isomer, unassigned; (+)) [EC2, (+)-episesamin catechol 2] | shows the activity |  |  |  |  |  |  | 
Oc1ccc([C@H]2OC[C@H]3[C@@H]2CO[C@@H]3c2ccc3c(c2)OCO3)cc1O [SC1, (+)-sesamin catechol 1] | shows the activity | shows the activity |  |  |  |  |  | 
Oc1ccc([C@H]2OC[C@H]3[C@@H]2CO[C@@H]3c2ccc(O)c(O)c2)cc1O [SC2, (+)-sesamin catechol 2] | shows the activity |  |  |  |  |  |  | 
O=C(O)[C@H]1O[C@H](OP(=O)(O)OP(=O)(O)OC[C@H]2O[C@@H](n3ccc(=O)[nH]c3=O)[C@H](O)[C@@H]2O)[C@H](O)[C@@H](O)[C@@H]1O [UDP-glucuronic acid] |  |  |  |  |  |  |  | activity to UDP-activated glycosyl donor [2, 5]: showed the activity; activity to UDP-activated glycosyl donor [1, 5]: showed the activity; activity to UDP-activated glycosyl donor [3, 5]: showed the activity
O=C1/C(=C/c2ccc(O)c(O)c2)Oc2cc(O)cc(O)c21 [aureusidin] | no activity |  | 40% | 13% |  |  |  | relative activity to each substrate, taking the activity to scutellarein as 100% [3]: 2%
O=C(O)/C=C/c1ccc(O)c(O)c1 [caffeic acid] |  |  |  |  | no activity |  |  | 
COc1cc(-c2cc(=O)c3c(O)cc(O)cc3o2)ccc1O [chrysoeriol] |  |  | 18% | 6% |  | 0.02% |  | relative activity to each substrate, taking the activity to scutellarein as 100% [3]: 18%
COc1cc(/C=C/CO)ccc1O [coniferyl alcohol] | no activity | no activity |  |  |  |  | no activity | 
O=c1c(-c2ccc(O)cc2)coc2cc(O)ccc12 [daidzein] |  | no activity |  |  | no activity | 0.3% | no activity | 
COc1ccc(-c2cc(=O)c3c(O)cc(O)cc3o2)cc1O [diosmetin] |  |  | 62% | 4% |  | 0.3% |  | relative activity to each substrate, taking the activity to scutellarein as 100% [3]: 26%
O=C(O[C@@H]1Cc2c(O)cc(O)cc2O[C@@H]1c1cc(O)c(O)c(O)c1)c1cc(O)c(O)c(O)c1 [epigallocatechin gallate] | no activity | no activity |  |  | no activity |  | no activity | 
O=c1ccc2cc(O)c(O)cc2o1 [esculetin] |  | no activity |  | 0.03% |  | 0.3% | no activity | 
O=c1c(-c2ccc(O)cc2)coc2cc(O)cc(O)c12 [genistein] |  | no activity |  |  | no activity | 1% | no activity | 
O=c1cc(-c2ccc(O)cc2)oc2cc(O)c([C@@H]3O[C@H](CO)[C@@H](O)[C@H](O)[C@H]3O)c(O)c12 [isovitexin] | no activity | no activity |  | 0.3% |  |  | no activity | 
O=c1c(O)c(-c2ccc(O)cc2)oc2cc(O)cc(O)c12 [kaempferol] |  |  | 3% | 18% |  | 14% |  | relative activity to each substrate, taking the activity to scutellarein as 100% [3]: 28%
O=c1c(O)c(-c2cc(O)c(O)c(O)c2)oc2cc(O)cc(O)c12 [myricetin] | shows the activity |  | 9% |  |  |  |  | 
O=C1C[C@@H](c2ccc(O)cc2)Oc2cc(O)cc(O)c21 [naringenin] |  |  | 3% | 2% |  | 6% |  | relative activity to each substrate, taking the activity to scutellarein as 100% [3]: 15%
O=c1cc(-c2ccc(O)c(O)c2)oc2c([C@@H]3O[C@H](CO)[C@@H](O)[C@H](O)[C@H]3O)c(O)cc(O)c12 [orientin] | no activity | no activity |  |  | no activity |  | no activity | 
Oc1ccc(C=Cc2cc(O)cc(O)c2)cc1 [resveratrol] | shows the activity | shows the activity |  |  | shows the activity |  | shows the activity | 
O=c1cc(-c2cc(O)c(O)c(O)c2)oc2cc(O)cc(O)c12 [tricetin] |  |  | 87.9% | 14.0% |  | 1.1% |  | relative activity to each substrate, taking the activity to scutellarein as 100% [3]: 23.8%
catechin | no activity | no activity |  |  | no activity |  | no activity | 
